{
  "source": "patent US20250231185A1",
  "about": "“Coronavirus T Cell Epitopes, Megapools and Uses Thereof” (La Jolla Institute for Immunology, priority 2021, published 2025)",
  "system": "CD8+ T cells",
  "assay": "Meta-analysis of published SARS-CoV-2 CD8 T cell epitope data curated in the IEDB (25 studies)",
  "format": "cell-based, human",
  "key": {"[1]": {"settings": "CD8S (D) Megapool, antigen S, dominant = recognized in 3 or more donors/studies"}, "[2]": {"settings": "CD8-restricted SARS-CoV-2 epitopes, Yes = recognized by 3 or more donors/different studies"}, "[3]": {"settings": "SARS-CoV-2-derived CD8 epitopes, dominant = recognized by 3 or more donors/different studies"}, "[4]": {"settings": "CD8 epitopes, Yes = recognized by 3 or more donors/different studies"}},
  "data": [
    {"substance": "1486 (KLPDDFTGCV) [compound 1486]", "values": [
      {"measurement": "Dominant", "setting": "[1]", "value": "Yes (more dominant epitopes are defined by being recognized by 3 or more donors/different studies)"}
    ]},
    {"substance": "1258 (LLALHRSYL) [compound 1258]", "values": [
      {"measurement": "Dominant", "setting": "[2]", "value": "Yes (more dominant epitopes are defined by being recognized by 3 or more donors/different studies)"}
    ]},
    {"substance": "1105 (RIFTIGTVTLK) [compound 1105]", "values": [
      {"measurement": "Dominant", "setting": "[2]", "value": "Yes (more dominant epitopes are defined by being recognized by 3 or more donors/different studies)"}
    ]},
    {"substance": "872 (FLLPSLATV) [compound 872]", "values": [
      {"measurement": "Dominant", "setting": "[3]", "value": "Yes (more dominant epitopes are defined by being recognized by 3 or more donors/different studies)"}
    ]},
    {"substance": "1481 (YLQPRTFLL) [compound 1481]", "values": [
      {"measurement": "Dominant", "setting": "[1]", "value": "Yes (more dominant epitopes are defined by being recognized by 3 or more donors/different studies)"}
    ]},
    {"substance": "1238 (SSANNCTFEY) [compound 1238]", "values": [
      {"measurement": "Dominant", "setting": "[2]", "value": "Yes (more dominant epitopes are defined by being recognized by 3 or more donors/different studies)"}
    ]},
    {"substance": "1286 (RISNCVADY) [compound 1286]", "values": [
      {"measurement": "Dominant", "setting": "[2]", "value": "Yes (more dominant epitopes are defined by being recognized by 3 or more donors/different studies)"}
    ]},
    {"substance": "1111 (IVGVALLAVF) [compound 1111]", "values": [
      {"measurement": "Dominant", "setting": "[2]", "value": "Yes (more dominant epitopes are defined by being recognized by 3 or more donors/different studies)"}
    ]},
    {"substance": "466 (AVILRGHLR) [compound 466]", "values": [
      {"measurement": "Dominant", "setting": "[4]", "value": "Yes (more dominant epitopes are defined by being recognized by 3 or more donors/different studies)"}
    ]},
    {"substance": "1291 (KCYGVSPTK) [compound 1291]", "values": [
      {"measurement": "Dominant", "setting": "[2]", "value": "Yes (more dominant epitopes are defined by being recognized by 3 or more donors/different studies)"}
    ]},
    {"substance": "426 (KLLEQWNLV) [compound 426]", "values": [
      {"measurement": "Dominant", "setting": "[4]", "value": "Yes (more dominant epitopes are defined by being recognized by 3 or more donors/different studies)"}
    ]},
    {"substance": "1475 (SSANNCTFEY) [compound 1475]", "values": [
      {"measurement": "Dominant", "setting": "[1]", "value": "Yes (more dominant epitopes are defined by being recognized by 3 or more donors/different studies)"}
    ]},
    {"substance": "425 (GTITVEELK) [compound 425]", "values": [
      {"measurement": "Dominant", "setting": "[4]", "value": "Yes (more dominant epitopes are defined by being recognized by 3 or more donors/different studies)"}
    ]},
    {"substance": "1512 (HLMSFPQSA) [compound 1512]", "values": [
      {"measurement": "Dominant", "setting": "[1]", "value": "Yes (more dominant epitopes are defined by being recognized by 3 or more donors/different studies)"}
    ]},
    {"substance": "1488 (NYNYLYRLF) [compound 1488]", "values": [
      {"measurement": "Dominant", "setting": "[1]", "value": "Yes (more dominant epitopes are defined by being recognized by 3 or more donors/different studies)"}
    ]},
    {"substance": "745 (AYILFTRFFYV) [compound 745]", "values": [
      {"measurement": "Dominant", "setting": "[3]", "value": "Yes (more dominant epitopes are defined by being recognized by 3 or more donors/different studies)"}
    ]},
    {"substance": "1485 (KIADYNYKL) [compound 1485]", "values": [
      {"measurement": "Dominant", "setting": "[1]", "value": "Yes (more dominant epitopes are defined by being recognized by 3 or more donors/different studies)"}
    ]},
    {"substance": "1204 (YTNSFTRGVY) [compound 1204]", "values": [
      {"measurement": "Dominant", "setting": "[2]", "value": "Yes (more dominant epitopes are defined by being recognized by 3 or more donors/different studies)"}
    ]},
    {"substance": "1249 (TPINLVRDL) [compound 1249]", "values": [
      {"measurement": "Dominant", "setting": "[2]", "value": "Yes (more dominant epitopes are defined by being recognized by 3 or more donors/different studies)"}
    ]},
    {"substance": "493 (FPRGQGVPI) [compound 493]", "values": [
      {"measurement": "Dominant", "setting": "[4]", "value": "Yes (more dominant epitopes are defined by being recognized by 3 or more donors/different studies)"}
    ]},
    {"substance": "1228 (TLDSKTQSL) [compound 1228]", "values": [
      {"measurement": "Dominant", "setting": "[2]", "value": "Yes (more dominant epitopes are defined by being recognized by 3 or more donors/different studies)"}
    ]},
    {"substance": "858 (GTDLEGNFY) [compound 858]", "values": [
      {"measurement": "Dominant", "setting": "[3]", "value": "Yes (more dominant epitopes are defined by being recognized by 3 or more donors/different studies)"}
    ]},
    {"substance": "1484 (KCYGVSPTK) [compound 1484]", "values": [
      {"measurement": "Dominant", "setting": "[1]", "value": "Yes (more dominant epitopes are defined by being recognized by 3 or more donors/different studies)"}
    ]},
    {"substance": "1489 (YFPLQSYGF) [compound 1489]", "values": [
      {"measurement": "Dominant", "setting": "[1]", "value": "Yes (more dominant epitopes are defined by being recognized by 3 or more donors/different studies)"}
    ]},
    {"substance": "816 (SLRPDTRYVL) [compound 816]", "values": [
      {"measurement": "Dominant", "setting": "[3]", "value": "Yes (more dominant epitopes are defined by being recognized by 3 or more donors/different studies)"}
    ]},
    {"substance": "1173 (QLRARSVSPK) [compound 1173]", "values": [
      {"measurement": "Dominant", "setting": "[2]", "value": "Yes (more dominant epitopes are defined by being recognized by 3 or more donors/different studies)"}
    ]},
    {"substance": "1474 (TLDSKTQSL) [compound 1474]", "values": [
      {"measurement": "Dominant", "setting": "[1]", "value": "Yes (more dominant epitopes are defined by being recognized by 3 or more donors/different studies)"}
    ]},
    {"substance": "1471 (RFDNPVLPF) [compound 1471]", "values": [
      {"measurement": "Dominant", "setting": "[1]", "value": "Yes (more dominant epitopes are defined by being recognized by 3 or more donors/different studies)"}
    ]},
    {"substance": "499 (KMKDLSPRW) [compound 499]", "values": [
      {"measurement": "Dominant", "setting": "[4]", "value": "Yes (more dominant epitopes are defined by being recognized by 3 or more donors/different studies)"}
    ]},
    {"substance": "1521 (SEPVLKGVKL) [compound 1521]", "values": [
      {"measurement": "Dominant", "setting": "[1]", "value": "Yes (more dominant epitopes are defined by being recognized by 3 or more donors/different studies)"}
    ]},
    {"substance": "1248 (IYSKHTPINL) [compound 1248]", "values": [
      {"measurement": "Dominant", "setting": "[2]", "value": "Yes (more dominant epitopes are defined by being recognized by 3 or more donors/different studies)"}
    ]},
    {"substance": "1476 (FVFKNIDGY) [compound 1476]", "values": [
      {"measurement": "Dominant", "setting": "[1]", "value": "Yes (more dominant epitopes are defined by being recognized by 3 or more donors/different studies)"}
    ]},
    {"substance": "1109 (IPIQASLPF) [compound 1109]", "values": [
      {"measurement": "Dominant", "setting": "[2]", "value": "Yes (more dominant epitopes are defined by being recognized by 3 or more donors/different studies)"}
    ]},
    {"substance": "1245 (FVFKNIDGY) [compound 1245]", "values": [
      {"measurement": "Dominant", "setting": "[2]", "value": "Yes (more dominant epitopes are defined by being recognized by 3 or more donors/different studies)"}
    ]},
    {"substance": "1496 (VASQSIIAY) [compound 1496]", "values": [
      {"measurement": "Dominant", "setting": "[1]", "value": "Yes (more dominant epitopes are defined by being recognized by 3 or more donors/different studies)"}
    ]},
    {"substance": "1478 (TPINLVRDL) [compound 1478]", "values": [
      {"measurement": "Dominant", "setting": "[1]", "value": "Yes (more dominant epitopes are defined by being recognized by 3 or more donors/different studies)"}
    ]},
    {"substance": "1506 (TQNVLYENQK) [compound 1506]", "values": [
      {"measurement": "Dominant", "setting": "[1]", "value": "Yes (more dominant epitopes are defined by being recognized by 3 or more donors/different studies)"}
    ]},
    {"substance": "1516 (RLNEVAKNL) [compound 1516]", "values": [
      {"measurement": "Dominant", "setting": "[1]", "value": "Yes (more dominant epitopes are defined by being recognized by 3 or more donors/different studies)"}
    ]},
    {"substance": "1220 (RFDNPVLPF) [compound 1220]", "values": [
      {"measurement": "Dominant", "setting": "[2]", "value": "Yes (more dominant epitopes are defined by being recognized by 3 or more donors/different studies)"}
    ]},
    {"substance": "874 (MPASWVMRI) [compound 874]", "values": [
      {"measurement": "Dominant", "setting": "[3]", "value": "Yes (more dominant epitopes are defined by being recognized by 3 or more donors/different studies)"}
    ]},
    {"substance": "1473 (TEKSNIIRGW) [compound 1473]", "values": [
      {"measurement": "Dominant", "setting": "[1]", "value": "Yes (more dominant epitopes are defined by being recognized by 3 or more donors/different studies)"}
    ]},
    {"substance": "810 (FSAVGNICY) [compound 810]", "values": [
      {"measurement": "Dominant", "setting": "[3]", "value": "Yes (more dominant epitopes are defined by being recognized by 3 or more donors/different studies)"}
    ]},
    {"substance": "1152 (YYQLYSTQL) [compound 1152]", "values": [
      {"measurement": "Dominant", "setting": "[2]", "value": "Yes (more dominant epitopes are defined by being recognized by 3 or more donors/different studies)"}
    ]},
    {"substance": "1133 (VYFLQSINF) [compound 1133]", "values": [
      {"measurement": "Dominant", "setting": "[2]", "value": "Yes (more dominant epitopes are defined by being recognized by 3 or more donors/different studies)"}
    ]},
    {"substance": "442 (TLACFVLAAV) [compound 442]", "values": [
      {"measurement": "Dominant", "setting": "[4]", "value": "Yes (more dominant epitopes are defined by being recognized by 3 or more donors/different studies)"}
    ]},
    {"substance": "494 (NTNSSPDDQIGYY) [compound 494]", "values": [
      {"measurement": "Dominant", "setting": "[4]", "value": "Yes (more dominant epitopes are defined by being recognized by 3 or more donors/different studies)"}
    ]},
    {"substance": "1157 (HLVDFQVTI) [compound 1157]", "values": [
      {"measurement": "Dominant", "setting": "[2]", "value": "Yes (more dominant epitopes are defined by being recognized by 3 or more donors/different studies)"}
    ]}
  ]
}
